Measurements reported in patent US20220211687A1, “USE OF ARIMOCLOMOL IN THE TREATMENT OF NIEMANN PICK DISEASE” (Orphazyme A/S, priority 2020, published 2022).

Columns and labels:
[1] = test system: Niemann-Pick disease type C (NPC); assay: EQ-5D-3L Y proxy health-related quality of life, phase 2/3 trial; assay type: in vivo, human
Protocol: EQ-5D-3L Y proxy: The HRQoL of individuals in the trial was measured using the child-friendly version of the EQ-5D-3L Y proxy questionnaire. The questionnaire was completed by the patient's caregiver as a proxy for the individual.

[2] = test system: Niemann-Pick disease type C (NPC); assay: Nine-hole peg test (9-HPT), phase 2/3 trial; assay type: in vivo, human; conditions: for 9-HPT time, change from baseline to 12 months, LS mean: arimoclomol group
Description: 9-HPT: The 9-HPT is a direct and simple measurement of fine motor coordination, hand/eye coordination, and the ability to follow a simple direction, measured in seconds for each hand. The test is not applicable for children under 4 years of age. See Poole J L, Burtner PA, Torres TA, et al. Measuring dexterity in children using the Nine-hole Peg Test. J Hand Ther. 2005; 18:348-51.

[3] = Safety in open-label extension (OLE) of phase 2/3 trial
Description: All OLE patients received arimoclomol; routine clinical care, including miglustat, was maintained.

[4] = test system: Niemann-Pick disease type C (NPC); assay: 5-domain NPCCSS score, open-label extension (OLE) of phase 2/3 trial; assay type: in vivo, human
[5] = test system: Niemann-Pick disease type C (NPC)
[6] = Safety evaluation (TEAEs), 12-month double-blind phase 2/3 trial; assay type: in vivo, human
Protocol: (§1) Routine clinical care was maintained throughout the trial (including administration of miglustat). Each participant was randomized to receive arimoclomol or placebo three times daily. Arimoclomol was administered orally or by feeding tube at 93-372 mg/day based on the patient's body weight up to the estimated equivalence of 372 mg/day for adults (body weight >55 kg) or of 124 mg three times a day.

[7] = test system: Niemann-Pick disease type C (NPC); assay: 17-domain (full) NPCCSS score excluding hearing domains, phase 2/3 trial; assay type: in vivo, human; conditions: for Full NPCCSS score (excluding hearing domains), LS mean change from baseline, Arimoclomol vs placebo: Difference: p=0.5726
Description: As would be appreciated by the skilled artisan, progression of NPC in a subject can be tracked by a clinician using the NPC composite clinical severity scale (hereafter “NPCCSS”; see Yanjanin NM et al. Am J Med Genet B Neuropsychiatr Genet, 2010; 153B (1): 132-140, incorporated herein by reference in its entirety). A full “17-domain NPCCSS score” incorporates clinical signs and symptoms in nine major (ambulation, cognition, eye movement, fine motor, hearing, memory, seizures, speech, swallowing) and eight minor (auditory brainstem response, behavior, gelastic cataplexy, hyperreflexia, incontinence, narcolepsy, psychiatric, respiratory problems) domains to determine a score which describes the severity of the subject's NPC progression (a higher score, the more progressed/severe the disease is). An abridged “5-domain NPCCSS score” is also used by clinicians, and incorporates clinical signs and symptoms from the major domains of ambulation, cognition, fine motor, speech and swallowing (see Cortina-Borj a M et al. OrphanetJRare Dis, 2018; 13 (1): 143; 3, incorporated herein by reference in its entirety).
as §1

[8] = test system: Niemann-Pick disease type C (NPC); assay: Clinical Global Impression-Improvement scale (CGI-I) responder analysis, phase 2/3 trial; assay type: in vivo, human
Protocol: (§2) During the 12-month treatment phase, efficacy assessments for the primary endpoint, the 5-domain NPCCSS score, and for the non-disease specific Clinical Global Impression—Improvement scale (CGI-I) scores were performed at baseline and after 3, 6, 9, and 12 months of treatment; all other efficacy and biomarker assessments were performed at baseline and after 6 and 12 months of treatment.
CGI-I: the CGI-I was originally developed as a research rating tool to assess psychiatric diseases (see Busner J, Targum SD. The clinical global impressions scale: applying a research tool in clinical practice. Psychiatry (Edgmont). 2007;4:28-37, incorporated herein by reference in its entirety). It provides the clinician's impression of improvement (or worsening) of a person's condition at the current visit compared with baseline on a 7-point scale ranging from 1 (very much improved) to 7 (very much worse). In the present trial, CGI-I was performed after clinical examination and patient interviews; the same investigator was instructed to perform CGI-I assessments throughout the trial for a given patient.

[9] = test system: Niemann-Pick disease type C (NPC); assay: 5-domain NPCCSS score, 12-month double-blind placebo-controlled phase 2/3 trial; assay type: in vivo, human; conditions: for Responders on 5-domain NPCCSS score at 12 months, %: responder = stable or improved
Protocol: Patients enrolled in the trial were stratified by use of miglustat at baseline. Patients in both strata were randomized 2:1 to receive arimoclomol or placebo.
as §1, §2
Primary endpoint: The primary endpoint was change from baseline in NPC severity at 12 months as assessed by the 5-domain NPCCSS score, an abbreviated assessment tool originating from the 17 domain NPCCSS score developed by Yanjanin et al., as described herein. The fully validated 5-domain NPCCSS score comprises the domains determined to be most clinically relevant to patients, caregivers, and clinicians: ambulation, cognition, fine motor skills, speech, and swallowing. The total aggregated 5-domain NPCCSS score ranges from 0 to 25, with a higher score indicating more severe clinical impairment.
Subgroup analyses of primary endpoint: NPC is a heterogeneous disease, and patients aged 2 to 18 years present with a large spectrum of disease presentations. The group of children <4 years old includes patients with mild manifestations and patients with aggressive, early fatal disease. As this group is particularly heterogeneous, a subgroup of patients >4 years of age was predefined with the population of study participants.
In the EU, miglustat is indicated for the treatment of progressive neurological manifestations in patients with NPC. However, not all patients are candidates for miglustat treatment, and it is recommended that the benefit of treatment should be evaluated on a regular basis (e.g., every six months). An analysis of the subpopulation of patients receiving miglustat was prespecified to elucidate the effect of arimoclomol in patients on background miglustat treatment. Overall, the subgroups of patients ≥4 years of age, and patients on miglustat treatment, were expected to be more homogeneous with respect to baseline demographics and disease characteristics and therefore more suitable for comparison.
In the first post hoc analysis, subjects with double functional null mutations in NPC1 (NPC1 genotype of Functional Null/Functional Null) were excluded.

[10] = evidenced by presence in cerebrospinal fluid of treated ALS patients; cited from earlier work
[11] = test system: Niemann-Pick disease type C (NPC); assay: NPC clinical database (NPC-cdb) score, phase 2/3 trial; assay type: in vivo, human; conditions: for NPC-cdb score change from baseline to 12 months, Arimoclomol vs placebo: Difference: p=0.3785
Description: Additional secondary endpoints included: change from baseline in scale for assessment and rating of ataxia (SARA) score at 6 and 12 months; change in the nine-hole peg test (9-HPT) result at 6 and 12 months; change in health-related quality of life (HRQoL) as measured by the 5-dimension 3-level EuroQol questionnaire, youth version (EQ-5D-3L Y proxy) at 6 and 12 months; change in individual 5-domain NPCCSS score at month 12; and NPC clinical database (NPC-cdb) score changes from baseline at trial time points. The NPC-cdb score aims to reflect clinical status; an increase in score indicates a reduction in the patient's abilities.

[12] = test system: Niemann—Pick disease type C (NPC); conditions: background statement; cited from earlier work

[O-][n+]1cccc(/C(Cl)=N/OC[C@H](O)CN2CCCCC2)c1 [Arimoclomol, N-[(2R)-2-hydroxy-3-piperidin-1-ylpropoxy]-1-oxidopyridin-1-ium-3-carboximidoyl chloride]
EQ-5D-3L Y proxy, Improved at 12 months, % ([1]; arimoclomol group): (25.9) %
EQ-5D-3L Y proxy, Worsened at 12 months, % ([1]; arimoclomol group): (44.4) %
EQ-5D-3L Y proxy, Worsened at 12 months, Arimoclomol vs placebo: Difference ([1]; p=0.1804): 24.4%
EQ-5D-3L Y proxy, Improved at 12 months, Arimoclomol vs placebo: Difference ([1]; p=0.4880): −14.1%
9-HPT time, change from baseline to 12 months, LS mean ([2]; Dominant hand): -3.29 s
9-HPT time, change from baseline to 12 months, Arimoclomol vs placebo: Difference ([2]; Dominant hand, p=0.7283): 3.20 s
9-HPT time, change from baseline to 12 months, LS mean ([2]; Non-dominant hand): 11.68 s
9-HPT time, change from baseline to 12 months, Arimoclomol vs placebo: Difference ([2]; Non-dominant hand, p=0.7708): -5.91 s
Adverse events incidence ([3]; M12-24): 87.8%
Adverse events incidence ([3]; M24-36): 85.3%
Safety and tolerability ([3]; over 24 months): safe and well-tolerated
Tolerability ([3]; over 36 months): well tolerated
Benefit over a two-year period ([4]; 12-month OLE after 12-month double-blind part): sustained benefit
Treatment effect over 36 months ([4]; OLE, 36 months): sustained treatment effect
5D-NPCCSS mean (SD) change from baseline at M36 ([4]; arimoclomol-arimoclomol group, 3 years' arimoclomol treatment (DB and OLE)): 3.5 (5.6)
Progression in OLE compared to placebo-controlled part ([4]; patients who received arimoclomol for a total of two years, mainly due to patients under 4 years): greater progression
5-domain NPCCSS progression ([4]; patients who switched from placebo to arimoclomol, 12-month open label extension): 0.23
5D-NPCCSS mean (SD) change from baseline at M36 ([4]; placebo-arimoclomol group, 2 years' arimoclomol treatment (OLE only)): 0.9 (2.1)
Early treatment initiation versus delayed start of treatment ([4]; predefined subgroups: patients 4 years and older, patients receiving miglustat): greater benefit than delayed start of treatment
Benefit of sustained treatment across subgroups at M36 ([4]; subgroups: aged >4 years, treated with miglustat, without double functional null mutations): consistent benefit
SARA score change from baseline to 12 months, LS mean ([5]; arimoclomol group): 1.06
SARA score change from baseline to 12 months, Arimoclomol vs placebo: Difference ([5]; p=0.7899): 0.28
Tolerability ([6]; 12-month placebo-controlled trial): well tolerated
Number of patients with increase in serum creatinine level over 1.5 times baseline ([6]; arimoclomol group): Six
Number of patients with serum creatinine level over twice baseline ([6]; arimoclomol group): two
Patients with serious TEAEs ([6]; arimoclomol group 5/34): 14.7%
Patients with vomiting (most common TEAE) ([6]; arimoclomol group 8/34): 23.5%
Upper respiratory tract infection and decreased weight, frequency versus placebo ([6]; double-blind phase): occurred more frequently
Patients with TEAEs (adverse event incidence) ([6]; double-blind phase, 12 months, arimoclomol group 30/34): 88.2%
Changes in vital signs, electrocardiograms, or other laboratory values ([6]; during the trial): no significant changes
Patients with TEAEs that led to trial drug discontinuation ([6]; three patients, four TEAEs (urticaria x2, angioedema, increased blood creatinine)): 8.8%
Full NPCCSS score (excluding hearing domains), LS mean change from baseline ([7]; 12 months, arimoclomol group): 1.24
Full NPCCSS score (excluding hearing domains), LS mean change from baseline, Arimoclomol vs placebo: Difference ([7]; 12 months): −1.56
Full NPCCSS score (excluding hearing domains), LS mean change from baseline, Arimoclomol vs placebo: Difference ([7]; 12 months, listed as arimoclomol): numerically in favor of arimoclomol
Full NPCCSS score (excluding hearing domains) at 12 months, Mean ([7]; arimoclomol group n=25): 1.2
Full NPCCSS score (excluding hearing domains) at 12 months, Median ([7]; arimoclomol group n=25): 1.0
Responders on CGI-I at 12 months, Arimoclomol vs placebo: Difference ([8]; p=1.0000): 2.6%
Responders on CGI-I at 12 months, % ([8]; responder = stable or improved, arimoclomol group): (58.8) %
Change in 5-domain NPCCSS score from baseline at 12 months, mean change ([9]; individuals aged ≥4 years, arimoclomol group n=30 (24 at 12 months)): 0.44
Change in 5-domain NPCCSS score from baseline at 12 months, Arimoclomol vs placebo: Difference ([9]; individuals aged ≥4 years, p=0.0190): −1.75
Relative reduction in annual disease progression ([9]; individuals aged ≥4 years, vs placebo): 80%
Change in 5-domain NPCCSS score from baseline at 12 months, mean change ([9]; individuals not receiving miglustat, arimoclomol group n=8 (3 at 12 months)): 4.2
Change in 5-domain NPCCSS score from baseline at 12 months, Arimoclomol vs placebo: Difference ([9]; individuals not receiving miglustat, p=0.2835): 2.21
Change in 5-domain NPCCSS score from baseline at 12 months, mean change ([9]; individuals receiving miglustat, arimoclomol group n=26 (22 at 12 months)): −0.01
Change in 5-domain NPCCSS score from baseline at 12 months, Arimoclomol vs placebo: Difference ([9]; individuals receiving miglustat, p=0.0074): −2.01
Relative reduction in annual disease progression ([9]; individuals receiving miglustat, vs placebo): 101%
Relative reduction in annual disease progression ([9]; overall population, 5-domain NPCCSS, vs placebo): 63%
Change in 5-domain NPCCSS score from baseline at 12 months, mean change ([9]; overall population, arimoclomol group n=34 (27 at 12 months), 93-372 mg/day by body weight, three times daily): 0.80
Change in 5-domain NPCCSS score from baseline at 12 months, Arimoclomol vs placebo: Difference ([9]; overall population, p=0.0537): −1.34
Responders on 5-domain NPCCSS score at 12 months, Arimoclomol vs placebo: Difference ([9]; p=0.5456): 12.5%
Proportion worsening on 5-domain NPCCSS score at 12 months, Arimoclomol vs placebo: Difference ([9]; p=1.0000): 0.37%
Progression of NPC in prespecified subgroups (MMRM on 5-domain NPCCSS) ([9]; patients >4 years old (n=44) and patients concomitantly receiving miglustat (n=39), p<0.05): slowed progression of NPC
Relative reduction in annual disease progression ([9]; post hoc, baseline ASIS within 0.5 and 2): 93%
Change in 5-domain NPCCSS score, Arimoclomol vs placebo: Difference ([9]; post hoc, baseline ASIS within 0.5 and 2 (n=21), p=0.0536): −2.39
Change in 5-domain NPCCSS score from baseline at 12 months, mean change ([9]; post hoc, baseline ASIS within 0.5 and 2, arimoclomol n=13): 0.19
Relative reduction in annual disease progression ([9]; post hoc, excluding individuals with double functional null mutations): 77%
Change in 5-domain NPCCSS score from baseline at 12 months, mean change ([9]; post hoc, excluding individuals with double functional null mutations, arimoclomol n=31): 0.47
Change in 5-domain NPCCSS score, Arimoclomol vs placebo: Difference ([9]; post hoc, excluding individuals with double functional null mutations, p=0.0242): −1.56
Responders on 5-domain NPCCSS score at 12 months, % ([9]; arimoclomol group n=34): (50.0) %
Responders on 5-domain NPCCSS score at 12 months, % ([9]; arimoclomol group n=34, listed as arimoclomol): 50.0%
Time to worsening on 5-domain NPCCSS score ([9]; time until worsened by 2 points vs baseline, arimoclomol group): 3.68 months
Proportion worsening on 5-domain NPCCSS score at 12 months, % ([9]; worsening by 2 points vs baseline, arimoclomol group n=34): (44.1) %
Blood-brain barrier penetration [10]: crosses the blood—brain barrier
NPC-cdb score change from baseline to 12 months, LS mean ([11]; arimoclomol group): 1.85
NPC-cdb score change from baseline to 12 months, Arimoclomol vs placebo: Difference [11]: −3.03
NPC-cdb score change from baseline to 12 months, Arimoclomol vs placebo: Difference ([11]; listed as arimoclomol): numerically in favor of arimoclomol

CCCCN1C[C@H](O)[C@@H](O)[C@H](O)[C@H]1CO [miglustat, (2R,3R,4R,5 S)-1-butyl-2-(hydroxymethyl)piperidine-3 ,4,5-triol]
Effect on slowing NPC disease progression [12]: only a modest effect on slowing disease progression
